Literature values, collected in patent US10045962B2 (priority 2014, dated 2018).

How the values were obtained:
[1] = test system: reuptake of dopamine; conditions: pre-clinical tests; cited from earlier work
[2] = test system: monoamine oxidase; conditions: cited from earlier work
[3] = test system: reuptake of serotonin; conditions: pre-clinical tests; cited from earlier work
[4] = test system: histaminergic receptors; conditions: in vitro tests; cited from earlier work
[5] = test system: adrenergic receptors; conditions: in vitro tests; cited from earlier work
[6] = test system: dopaminergic receptors; conditions: in vitro tests; cited from earlier work
[7] = test system: reuptake of norepinephrine; conditions: pre-clinical tests; cited from earlier work
[8] = test system: cholinergic receptors; conditions: in vitro tests; cited from earlier work

Structure (SMILES): CNCC[C@H](Oc1cccc2ccccc12)c1cccs1 [duloxetine]
- block of reuptake of dopamine [1]: merely slightly block
- inhibition of monoamine oxidase [2]: does not inhibit
- block of reuptake of serotonin [3]: effectively block
- affinity to histaminergic receptors [4]: no significant affinity
- affinity to adrenergic receptors [5]: no significant affinity
- affinity to dopaminergic receptors [6]: no significant affinity
- block of reuptake of norepinephrine [7]: effectively block
- affinity to cholinergic receptors [8]: no significant affinity
